Experimental findings from ChEMBL document CHEMBL4325917, “Heterocyclic Amides as Kinase Inhibitors” (ACS Med Chem Lett, 2018) are described below.

Molecules are shown by their SMILES.

The experiment concerns the target T1, Receptor-interacting serine/threonine-protein kinase 1 (Homo sapiens, UniProt Q13546).
T1 sequence (Q13546 whole entry): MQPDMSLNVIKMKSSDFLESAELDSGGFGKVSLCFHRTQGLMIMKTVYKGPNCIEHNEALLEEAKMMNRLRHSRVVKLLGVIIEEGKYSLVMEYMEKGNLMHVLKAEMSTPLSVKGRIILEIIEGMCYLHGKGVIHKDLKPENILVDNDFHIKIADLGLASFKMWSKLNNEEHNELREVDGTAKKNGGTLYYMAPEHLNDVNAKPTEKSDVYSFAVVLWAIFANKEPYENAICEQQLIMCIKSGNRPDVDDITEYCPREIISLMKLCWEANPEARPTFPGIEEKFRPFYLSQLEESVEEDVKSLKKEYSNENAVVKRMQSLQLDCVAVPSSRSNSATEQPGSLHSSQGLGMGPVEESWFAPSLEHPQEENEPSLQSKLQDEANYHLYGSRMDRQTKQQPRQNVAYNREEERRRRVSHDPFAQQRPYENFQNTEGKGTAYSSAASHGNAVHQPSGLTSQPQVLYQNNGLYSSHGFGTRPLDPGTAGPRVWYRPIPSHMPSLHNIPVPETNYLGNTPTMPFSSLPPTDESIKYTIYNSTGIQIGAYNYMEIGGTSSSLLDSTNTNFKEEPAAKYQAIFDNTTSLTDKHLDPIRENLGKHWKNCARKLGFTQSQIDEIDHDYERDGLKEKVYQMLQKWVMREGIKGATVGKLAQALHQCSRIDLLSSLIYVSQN
The experiment in a line: Binding affinity to RIP1 (unknown origin) by fluorescence polarization assay.

The compound `O=C(N[C@H]1CNc2cc(Cl)ccc2NC1=O)c1nnc(Cc2ccccc2)[nH]1` had an IC50 of 20 nM.
